Source: paper PMC9954146, “Anti-Leukaemic Activity of Rilpivirine Is Mediated by Aurora A Kinase Inhibition” (Cancers, 2023)

Tests used:
[1] = target: T1, AAK1(h) (Homo sapiens, UniProt Q2M2I8); test: Kinase panel; format: biochemical; conditions: read-out: % Residual Activity
T1 construct: purchased Eurofins (KinaseProfiler)
Procedure: (§1) Kinome-wide selectivity of rilpivirine was measured using the kinase screening and profiling service of Eurofins Scientific (Le bois l’Evêque 86600. Celle-Lévescault, France) and Ki values were determined using radioisotope-based assays by Reaction Biology Corporation (Malvern, PA, USA). The experimental details of Eurofin Scientific and Reaction Biology services for relevant assays are available at https://www.eurofinsdiscoveryservices.com/services/in-Vitro-assays/kinases/kinase-profiler (accessed on 7 July 2021) and https://www.reactionbiology.com (accessed on 7 July 2021), respectively. Ki values were estimated from the corresponding IC50 values using the Cheng–Prusoff equation [21] and the Km (ATP) of individual kinase was used for IC50 determination.

[2] = target: T2, Abl(h) (Homo sapiens, UniProt P00519); test: Kinase panel; format: biochemical; conditions: read-out: % Residual Activity
T2 construct: purchased Eurofins (KinaseProfiler)
Procedure: as §1

[3] = target: T3, Abl(m) (Mus musculus, UniProt P00520); test: Kinase panel; format: biochemical; conditions: read-out: % Residual Activity
T3 construct: purchased Eurofins (KinaseProfiler)
Procedure: as §1

[4] = target: T4, BTK(R28H)(h) (Homo sapiens, UniProt Q06187, R28H); test: Kinase panel; format: biochemical; conditions: read-out: % Residual Activity
T4 construct: purchased Eurofins (KinaseProfiler)
Procedure: as §1

[5] = target: T5, BTK(h) (Homo sapiens, UniProt Q06187); test: Kinase panel; format: biochemical; conditions: read-out: % Residual Activity
T5 construct: purchased Eurofins (KinaseProfiler)
Procedure: as §1

[6] = target: T6, CDK13/cyclinK(h) (Homo sapiens, UniProt Q14004); test: Kinase panel; format: biochemical; conditions: read-out: % Residual Activity
T6 construct: purchased Eurofins (KinaseProfiler)
Procedure: as §1

[7] = target: T7, CDK17/cyclinY(h) (Homo sapiens, UniProt Q00537); test: Kinase panel; format: biochemical; conditions: read-out: % Residual Activity
T7 construct: purchased Eurofins (KinaseProfiler)
Procedure: as §1

[8] = target: T8, CDK2/cyclinE(h) (Homo sapiens, UniProt P24941); test: Kinase panel; format: biochemical; conditions: read-out: % Residual Activity
T8 construct: purchased Eurofins (KinaseProfiler)
Procedure: as §1

[9] = target: T9, CaMKIIα(h) (Homo sapiens, UniProt Q9UQM7); test: Kinase panel; format: biochemical; conditions: read-out: % Residual Activity
T9 construct: purchased Eurofins (KinaseProfiler)
Procedure: as §1

[10] = target: T10, EphA4(h) (Homo sapiens, UniProt P54764); test: Kinase panel; format: biochemical; conditions: read-out: % Residual Activity
T10 construct: purchased Eurofins (KinaseProfiler)
Procedure: as §1

[11] = target: T11, EphB4(h) (Homo sapiens, UniProt P54760); test: Kinase panel; format: biochemical; conditions: read-out: % Residual Activity
T11 construct: purchased Eurofins (KinaseProfiler)
Procedure: as §1

[12] = target: T12, IRAK4(h) (Homo sapiens, UniProt Q9NWZ3); test: Kinase panel; format: biochemical; conditions: read-out: % Residual Activity
T12 construct: purchased Eurofins (KinaseProfiler)
Procedure: as §1

[13] = target: T13, LATS2(h) (Homo sapiens, UniProt Q9NRM7); test: Kinase panel; format: biochemical; conditions: read-out: % Residual Activity
T13 construct: purchased Eurofins (KinaseProfiler)
Procedure: as §1

[14] = target: T14, Lyn(h) (Homo sapiens, UniProt P07948); test: Kinase panel; format: biochemical
T14 construct: purchased Eurofins (KinaseProfiler)
Procedure: as §1

[15] = target: T15, MEKK3(h) (Homo sapiens, UniProt Q99759); test: Kinase panel; format: biochemical; conditions: read-out: % Residual Activity
T15 construct: purchased Eurofins (KinaseProfiler)
Procedure: as §1

[16] = target: T16, MLCK(h) (Homo sapiens, UniProt Q15746); test: Kinase panel; format: biochemical; conditions: read-out: % Residual Activity
T16 construct: purchased Eurofins (KinaseProfiler)
Procedure: as §1

[17] = target: T17, MST2(h) (Homo sapiens, UniProt Q13188); test: Kinase panel; format: biochemical; conditions: read-out: % Residual Activity
T17 construct: purchased Eurofins (KinaseProfiler)
Procedure: as §1

[18] = target: T18, MST4(h) (Homo sapiens, UniProt Q9P289); test: Kinase panel; format: biochemical; conditions: read-out: % Residual Activity
T18 construct: purchased Eurofins (KinaseProfiler)
Procedure: as §1

[19] = target: T19, MYLK2(h) (Homo sapiens, UniProt Q9H1R3); test: Kinase panel; format: biochemical; conditions: read-out: % Residual Activity
T19 construct: purchased Eurofins (KinaseProfiler)
Procedure: as §1

[20] = target: PI3 Kinase (p110a(E542K)/p85a)(m) (Mus musculus, UniProt P42337, E542K); test: Kinase panel; format: biochemical; conditions: read-out: % Residual Activity
Procedure: as §1

[21] = target: T20, PI3 Kinase (p110a(E545K)/p85a)(m) (Mus musculus, UniProt P42337, E545K); test: Kinase panel; format: biochemical; conditions: read-out: % Residual Activity
T20 construct: purchased Eurofins (KinaseProfiler)
Procedure: as §1

[22] = target: T21, PKBβ(h) (Homo sapiens, UniProt P31751); test: Kinase panel; format: biochemical; conditions: read-out: % Residual Activity
T21 construct: purchased Eurofins (KinaseProfiler)
Procedure: as §1

[23] = target: T22, PKD2(h) (Homo sapiens, UniProt Q9BZL6); test: Kinase panel; format: biochemical; conditions: read-out: % Residual Activity
T22 construct: purchased Eurofins (KinaseProfiler)
Procedure: as §1

[24] = target: T23, Pim-3(h) (Homo sapiens, UniProt Q86V86); test: Kinase panel; format: biochemical; conditions: read-out: % Residual Activity
T23 construct: purchased Eurofins (KinaseProfiler)
Procedure: as §1

[25] = target: T24, STK16(h) (Homo sapiens, UniProt O75716); test: Kinase panel; format: biochemical; conditions: read-out: % Residual Activity
T24 construct: purchased Eurofins (KinaseProfiler)
Procedure: as §1

[26] = target: T25, ULK1(h) (Homo sapiens, UniProt O75385); test: Kinase panel; format: biochemical; conditions: read-out: % Residual Activity
T25 construct: purchased Eurofins (KinaseProfiler)
Procedure: as §1

[27] = target: T26, WNK3(h) (Homo sapiens, UniProt Q9BYP7); test: Kinase panel; format: biochemical; conditions: read-out: % Residual Activity
T26 construct: purchased Eurofins (KinaseProfiler)
Procedure: as §1

[28] = target: T27, Wee1(h) (Homo sapiens, UniProt P30291); test: Kinase panel; format: biochemical; conditions: read-out: % Residual Activity
T27 construct: purchased Eurofins (KinaseProfiler)
Procedure: as §1

[29] = target: T28, Yes(h) (Homo sapiens, UniProt P07947); test: Kinase panel; format: biochemical
T28 construct: purchased Eurofins (KinaseProfiler)
Procedure: as §1

[30] = target: T29, ZIPK(h) (Homo sapiens, UniProt O43293); test: Kinase panel; format: biochemical; conditions: read-out: % Residual Activity
T29 construct: purchased Eurofins (KinaseProfiler)
Procedure: as §1

[31] = target: T30, cSRC(h) (Homo sapiens, UniProt P12931); test: Kinase panel; format: biochemical; conditions: read-out: % Residual Activity
T30 construct: purchased Eurofins (KinaseProfiler)
Procedure: as §1

[32] = Pharmacokinetic analysis in mice; format: in vivo, mouse
Procedure: A pharmacokinetic study was performed as described previously. The pharmacokinetics of rilpivirine was determined after administration of single 50 mg/kg oral (PO) and 2 mg/kg intravenous (IV) doses to male BALB/c hairy mice (n = 6 per route). Briefly, three blood samples were collected from both cheeks (left and right) and the heart of each mouse. A validated liquid chromatography-mass spectrometry/mass spectrometry (LC-MS/MS) technique was used to measure the drug concentrations in the plasma. Pharmacokinetic parameters were estimated using compartmental models (Phoenix, Certara, NJ, USA) and analysis was performed with WinNonlin 6.4 software (Princeton, NJ, USA).

[33] = male, BALB/c hairy, mouse, plasma, IV, 2 mg/kg single dose
[34] = male, BALB/c hairy, mouse, plasma, PO, 50 mg/kg single dose

T28 sequence (P07947 whole entry): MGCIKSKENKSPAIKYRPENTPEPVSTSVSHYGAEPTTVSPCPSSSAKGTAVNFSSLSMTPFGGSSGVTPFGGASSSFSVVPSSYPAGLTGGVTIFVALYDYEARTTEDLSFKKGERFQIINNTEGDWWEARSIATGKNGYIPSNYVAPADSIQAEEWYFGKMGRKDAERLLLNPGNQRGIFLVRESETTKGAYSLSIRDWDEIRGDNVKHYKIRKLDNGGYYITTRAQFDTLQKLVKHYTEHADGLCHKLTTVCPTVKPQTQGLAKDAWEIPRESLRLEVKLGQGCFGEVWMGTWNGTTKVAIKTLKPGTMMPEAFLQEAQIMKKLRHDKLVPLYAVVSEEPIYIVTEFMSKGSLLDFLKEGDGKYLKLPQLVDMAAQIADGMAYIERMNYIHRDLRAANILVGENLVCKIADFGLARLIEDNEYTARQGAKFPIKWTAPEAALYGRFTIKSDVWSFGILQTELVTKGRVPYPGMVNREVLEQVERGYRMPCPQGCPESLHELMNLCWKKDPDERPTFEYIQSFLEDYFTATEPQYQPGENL
T14 sequence (P07948 whole entry): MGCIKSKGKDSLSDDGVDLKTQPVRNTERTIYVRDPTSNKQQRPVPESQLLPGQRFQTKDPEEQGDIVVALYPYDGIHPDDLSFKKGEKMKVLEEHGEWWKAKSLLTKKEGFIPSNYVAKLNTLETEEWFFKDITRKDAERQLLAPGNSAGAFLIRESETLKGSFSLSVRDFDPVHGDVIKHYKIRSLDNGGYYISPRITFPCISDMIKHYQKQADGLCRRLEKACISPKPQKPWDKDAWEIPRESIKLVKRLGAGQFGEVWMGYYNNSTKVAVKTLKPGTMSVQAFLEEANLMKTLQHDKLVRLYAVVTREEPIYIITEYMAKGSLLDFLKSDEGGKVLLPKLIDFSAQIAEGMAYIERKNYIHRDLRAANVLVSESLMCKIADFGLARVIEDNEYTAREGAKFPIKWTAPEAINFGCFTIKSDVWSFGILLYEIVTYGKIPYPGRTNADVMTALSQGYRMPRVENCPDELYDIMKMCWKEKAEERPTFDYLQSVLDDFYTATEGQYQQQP
T25 sequence (O75385 whole entry): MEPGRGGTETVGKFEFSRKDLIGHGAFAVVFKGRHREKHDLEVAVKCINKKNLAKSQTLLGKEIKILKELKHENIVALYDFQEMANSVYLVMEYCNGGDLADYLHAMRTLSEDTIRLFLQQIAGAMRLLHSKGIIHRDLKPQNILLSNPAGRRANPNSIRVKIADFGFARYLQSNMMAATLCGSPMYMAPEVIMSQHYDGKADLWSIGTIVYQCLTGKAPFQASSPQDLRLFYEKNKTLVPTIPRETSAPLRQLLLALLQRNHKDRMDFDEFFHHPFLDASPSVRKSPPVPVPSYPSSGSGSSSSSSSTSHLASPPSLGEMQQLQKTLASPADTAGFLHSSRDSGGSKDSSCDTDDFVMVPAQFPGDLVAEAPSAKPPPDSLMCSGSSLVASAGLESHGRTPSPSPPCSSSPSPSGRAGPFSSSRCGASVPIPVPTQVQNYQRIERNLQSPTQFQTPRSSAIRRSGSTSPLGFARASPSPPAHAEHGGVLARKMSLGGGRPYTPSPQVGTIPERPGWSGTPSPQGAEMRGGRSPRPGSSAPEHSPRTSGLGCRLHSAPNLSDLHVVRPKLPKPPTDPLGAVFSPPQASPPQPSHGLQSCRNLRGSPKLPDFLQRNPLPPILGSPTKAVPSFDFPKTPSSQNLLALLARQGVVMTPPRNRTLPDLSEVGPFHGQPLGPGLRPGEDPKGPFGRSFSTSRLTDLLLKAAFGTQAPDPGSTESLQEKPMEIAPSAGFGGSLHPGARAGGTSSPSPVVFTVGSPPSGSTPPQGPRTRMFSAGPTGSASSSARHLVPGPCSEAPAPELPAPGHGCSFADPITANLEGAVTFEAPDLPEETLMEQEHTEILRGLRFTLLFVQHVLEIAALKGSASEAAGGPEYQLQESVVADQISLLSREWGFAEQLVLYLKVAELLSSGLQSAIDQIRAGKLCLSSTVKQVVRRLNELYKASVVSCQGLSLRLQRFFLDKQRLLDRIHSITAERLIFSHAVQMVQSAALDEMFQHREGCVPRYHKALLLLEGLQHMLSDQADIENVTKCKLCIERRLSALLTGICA
T11 sequence (P54760 16-987): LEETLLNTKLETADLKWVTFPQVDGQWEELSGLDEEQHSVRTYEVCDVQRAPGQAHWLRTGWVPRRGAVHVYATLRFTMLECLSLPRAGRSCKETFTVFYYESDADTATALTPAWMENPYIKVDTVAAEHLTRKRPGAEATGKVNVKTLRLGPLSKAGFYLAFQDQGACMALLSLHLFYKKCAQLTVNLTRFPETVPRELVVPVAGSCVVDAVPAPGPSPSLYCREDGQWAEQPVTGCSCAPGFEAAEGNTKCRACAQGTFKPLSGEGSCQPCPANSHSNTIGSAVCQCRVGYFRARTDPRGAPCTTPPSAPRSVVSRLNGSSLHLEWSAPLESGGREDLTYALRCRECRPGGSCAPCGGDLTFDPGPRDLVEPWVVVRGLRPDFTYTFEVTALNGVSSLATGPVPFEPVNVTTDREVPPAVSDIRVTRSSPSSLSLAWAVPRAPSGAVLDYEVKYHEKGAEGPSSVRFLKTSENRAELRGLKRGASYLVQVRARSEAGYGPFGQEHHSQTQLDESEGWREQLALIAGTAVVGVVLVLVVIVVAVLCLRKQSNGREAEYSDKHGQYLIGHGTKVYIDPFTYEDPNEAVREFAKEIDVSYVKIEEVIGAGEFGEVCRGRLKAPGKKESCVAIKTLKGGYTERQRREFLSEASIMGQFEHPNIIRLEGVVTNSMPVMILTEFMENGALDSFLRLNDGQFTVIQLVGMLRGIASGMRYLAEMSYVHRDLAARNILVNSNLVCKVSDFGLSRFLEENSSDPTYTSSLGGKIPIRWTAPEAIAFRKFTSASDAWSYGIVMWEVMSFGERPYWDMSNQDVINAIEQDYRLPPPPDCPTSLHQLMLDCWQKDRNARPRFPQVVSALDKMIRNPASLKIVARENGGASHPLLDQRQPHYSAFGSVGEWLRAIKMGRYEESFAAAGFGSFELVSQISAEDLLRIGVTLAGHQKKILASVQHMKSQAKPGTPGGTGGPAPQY
T30 sequence (P12931 whole entry): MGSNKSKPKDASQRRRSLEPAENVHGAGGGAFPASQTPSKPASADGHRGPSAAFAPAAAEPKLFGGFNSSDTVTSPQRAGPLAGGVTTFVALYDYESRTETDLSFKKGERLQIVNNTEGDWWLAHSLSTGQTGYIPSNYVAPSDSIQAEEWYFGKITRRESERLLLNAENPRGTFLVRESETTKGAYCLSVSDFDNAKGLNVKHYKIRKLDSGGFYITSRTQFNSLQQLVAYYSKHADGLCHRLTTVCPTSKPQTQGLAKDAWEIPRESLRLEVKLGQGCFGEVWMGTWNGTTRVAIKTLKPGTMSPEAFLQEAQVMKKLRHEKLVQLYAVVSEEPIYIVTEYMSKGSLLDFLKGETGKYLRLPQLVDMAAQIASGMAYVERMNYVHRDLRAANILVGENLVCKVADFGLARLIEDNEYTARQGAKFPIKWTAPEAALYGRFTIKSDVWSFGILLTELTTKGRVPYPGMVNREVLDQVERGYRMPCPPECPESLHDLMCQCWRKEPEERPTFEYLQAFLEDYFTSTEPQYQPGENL
T17 sequence (Q13188 whole entry): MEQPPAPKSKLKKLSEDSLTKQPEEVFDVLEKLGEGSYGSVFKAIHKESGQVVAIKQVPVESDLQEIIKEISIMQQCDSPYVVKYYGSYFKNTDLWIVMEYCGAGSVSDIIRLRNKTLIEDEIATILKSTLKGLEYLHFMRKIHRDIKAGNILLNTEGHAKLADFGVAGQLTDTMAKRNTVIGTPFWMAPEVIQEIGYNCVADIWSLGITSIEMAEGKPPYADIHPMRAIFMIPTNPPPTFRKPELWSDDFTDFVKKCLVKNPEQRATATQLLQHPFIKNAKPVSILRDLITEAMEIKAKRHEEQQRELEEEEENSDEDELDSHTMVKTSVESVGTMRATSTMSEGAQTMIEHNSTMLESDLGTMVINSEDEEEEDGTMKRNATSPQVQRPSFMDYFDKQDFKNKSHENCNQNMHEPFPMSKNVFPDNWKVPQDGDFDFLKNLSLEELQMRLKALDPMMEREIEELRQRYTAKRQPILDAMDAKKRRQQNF
T4 sequence (Q06187 whole entry R28H): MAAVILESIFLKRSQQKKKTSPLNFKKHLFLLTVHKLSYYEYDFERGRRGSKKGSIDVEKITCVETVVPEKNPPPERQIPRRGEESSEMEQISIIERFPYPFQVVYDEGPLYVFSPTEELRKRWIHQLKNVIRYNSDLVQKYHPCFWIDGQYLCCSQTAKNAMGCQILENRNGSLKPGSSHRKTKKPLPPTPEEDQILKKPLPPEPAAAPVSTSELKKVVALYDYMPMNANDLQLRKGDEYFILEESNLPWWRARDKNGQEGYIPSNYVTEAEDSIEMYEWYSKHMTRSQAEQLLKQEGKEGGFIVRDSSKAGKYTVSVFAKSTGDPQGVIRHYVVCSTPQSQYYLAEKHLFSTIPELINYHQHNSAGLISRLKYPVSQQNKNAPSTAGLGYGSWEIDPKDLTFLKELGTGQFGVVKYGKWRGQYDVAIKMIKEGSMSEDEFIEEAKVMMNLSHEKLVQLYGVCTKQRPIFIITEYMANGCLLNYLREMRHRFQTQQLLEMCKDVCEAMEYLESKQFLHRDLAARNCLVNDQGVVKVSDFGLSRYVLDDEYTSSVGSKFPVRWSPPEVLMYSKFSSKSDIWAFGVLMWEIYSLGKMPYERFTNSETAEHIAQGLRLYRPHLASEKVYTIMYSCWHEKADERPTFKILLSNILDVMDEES
T5 sequence (Q06187 whole entry): as the sequence (Q06187 whole entry R28H) above, with H28R counted along it

`Cc1cc(/C=C/C#N)cc(C)c1Nc1ccnc(Nc2ccc(C#N)cc2)n1` [rilpivirine, (E)-4-((4-((4-(2-cyanoethenyl)-2,6-dimethylphenyl)amino)pyrimidin-2-yl)amino)benzonitrile] showed a remaining activity at 1 µM [1] of 87%, a remaining activity at 1 µM [2] of 86% and a remaining activity at 1 µM [3] of 63%. For the same compound, the remaining activity at 1 µM [4] was 97%, the remaining activity at 1 µM [5] was 90% and the remaining activity at 1 µM [6] was 82%. It also gave a remaining activity at 1 µM [7] of 78%, a remaining activity at 1 µM [8] of 92% and a remaining activity at 1 µM [9] of 61%. The remaining activity at 1 µM [10] was 93%, the remaining activity at 1 µM [11] was 86% and the remaining activity at 1 µM [12] was 80%. The remaining activity at 1 µM [13] was 80%, the inhibition at 1 µM ([14]; LYN, read-out: inhibitory activity) was greater than 70% and the remaining activity at 1 µM ([14]; read-out: % Residual Activity) was 23%. For the same compound, the remaining activity at 1 µM [15] was 72%, the remaining activity at 1 µM [16] was 95% and the remaining activity at 1 µM [17] was 80%. For the same compound, the remaining activity at 1 µM [18] was 91%, the remaining activity at 1 µM [19] was 79% and the remaining activity at 1 µM [20] was 101%. It also gave a remaining activity at 1 µM [21] of 97%, a remaining activity at 1 µM [22] of 90% and a remaining activity at 1 µM [23] of 115%. The remaining activity at 1 µM [24] was 89%, the remaining activity at 1 µM [25] was 58% and the remaining activity at 1 µM [26] was 85%. The remaining activity at 1 µM [27] was 83%, the remaining activity at 1 µM [28] was 90% and the inhibition at 1 µM ([29]; YES, read-out: inhibitory activity) was greater than 70%. It also gave a remaining activity at 1 µM ([29]; read-out: % Residual Activity) of 17%, a remaining activity at 1 µM [30] of 85% and a remaining activity at 1 µM [31] of 53%. For the same compound, the Cmax ([32]; IV, 2 mg/kg single dose, 2 mg/kg) was greater than 20 µM, the Cmax ([32]; PO, 50 mg/kg single dose, 50 mg/kg) was greater than 20 µM and the AUC(0-t) [32, 33] was 20 µM·h. It also gave a Tmax [32, 33] of 0.033 h, a half-life [32, 33] of 1.3 h and an AUC(0-t) [32, 34] of 247 µM·h. It also gave a Tmax [32, 34] of 1.5 h, a bioavailability [32, 34] of 49.1% and a half-life [32, 34] of 4.91 h. It also gave a Cmax ([32]; male, BALB/c hairy, mouse, plasma, iv, 2 mg/kg, 2 mg/kg single dose) of 22.4 µM and a Cmax ([32]; male, BALB/c hairy, mouse, plasma, po, 50 mg/kg, 50 mg/kg single dose) of 33.3 µM.
